In US6812239B2, “Method of identification of inhibitors of PDE1C and methods of treatment of diabetes” (Albert Einstein College of Medicine of Yeshiva University, priority 1999, dated 2004):
pIC50: −log10 of the molar value. Values joined by “and” are separate entries in the source; they are usually repeats but may differ in a detail not shown here. Equal entries are not always repeated. “Also recorded” adds a separate entry of the source. Values belong to the compound of their own block, whether it stands above or below them.

Columns and labels:
βTC3 cells = experiment: Insulin release from βTC3 cells by radioimmunoassay; type: cell-based, Mus musculus; details: 16.7 mM glucose; for Effect on glucose induced insulin secretion (in words): 2 hr incubation; for Insulin secretion, % of the cellular insulin content / Insulin secretion, % of the insulin content of the cells: 2 hr
Experimental: The cultured cells are starved for glucose in Hepes buffered Krebs-Ringer solution for 1 hr. Subsequently, 16.7 mM glucose and the potential phosphodiesterase inhibitors are added to the cells in Hepes buffered Krebs-Ringer solution and the cells are incubated for 2 additional hr. Each condition is assayed in triplicate. Insulin content of the supernatant after centrifugation, and of the cells after acid extraction, is determined by a radioimmunoassay. Control samples are treated with no potential inhibitor compound or, for control or calibration purposes, with compounds that will inhibit other PDE isozymes but that are known to lack PDE1C inhibitory activity or, for examining glucose-independent effects of potential inhibitor compound alone.
Cell Culture, treatments and measurements of insulin secretion. βTC3 cells were cultured as described and early passages were maintained (D'Ambra, R., Surana, M., Efrat, S., Starr, R. G., and Fleischer, N. (1990) Endocrinology 126, 2815-2822). For measurements of insulin secretion cells were plated onto a 12-well culture dishes 3-4 days, and refed 16 hr, prior to the assay. On the experiment day, cells were washed in Hepes-buffered Krebs-Ringer solution, and incubated in this glucose-free solution for 1 hr. Subsequently, 16.7 mM glucose and, when relevant, PDE inhibitors were added to the cells in Hepes-buffered Krebs-Ringer solution and the cells were incubated for 2 additional hr. Each condition was assayed in triplicates. Insulin content of the supernatant after centrifugation, and of the cells after acid extraction, was determined by a radioimmunoassay as described (D'Ambra, R., Surana, M., Efrat, S., Starr, R. G., and Fleischer, N. (1990) Endocrinology 126, 2815-2822).
Cyclic nucleotide phosphodiesterase inhibitors that augment insulin secretion were identified using used βTC3 insulinoma cells. For measurements of insulin secretion cells were plated onto a 12-well culture dishes 3-4 days, and refed 16 hr, prior to the assay. On the experiment day, cells were washed in Hepes-buffered Krebs-Ringer solution, and incubated in this glucose-free solution for 1 hour. Subsequently, 16.7 mM glucose and, when relevant, phosphodiesterase inhibitors were added to the cells in Hepes-buffered Krebs-Ringer solution and the cells were incubated for 2 additional hours. Each condition was assayed in triplicates. Insulin content of the supernatant after centrifugation, and of the cells after acid extraction, was determined by a radioimmunoassay.

[1] = test system: cGMP PDE activities of peak I (PDE1C and cGMP-specific PDE); experiment: cGMP PDE activity of mono-Q FPLC peak I of βTC3 cells; type: biochemical, Mus musculus; details: 50 μM 8 MM-IBMX
Experimental: (§1) Mono-Q-FPLC fractionation of PDE activities. Cells were scraped and homogenized in a buffer containing 50 mM Tris 7.5, 250 mM sucrose, 5 mM MgCl2, 0.2 μg/ml aprotinin, leupeptin and pepstatin, and 1 mM 4-(2-aminoethyl)benzenesulfonyl fluoride. Following a 30 min 150,000 g centrifugation, the supernatant was loaded onto a Pharmacia Mono-Q anion exchange column and PDE activities were fractionated by FPLC along a two step salt gradient. Column buffers were (A) 50 mM Tris 7.5 and (B) 50 mM Tris 7.5, 0.5 M NaCl. The gradient consisted of a 10 min increase to 0.2 M NaCl (20% B), and a 90 min increase to 0.5 M NaCl (100% B). One ml fractions were collected.
(§2) PDE assays and kinetic measurements. PDE assays were performed in duplicate as described (40). Analysis and plotting of kinetic data was performed by using the computer program kaleidagraph. The contributions of the high and low affinities cGMP PDEs of peak I to total PDE activity of this peak at a given substrate concentration were calculated using the formula: […]

[2] = test system: soluble PDE activities of βTC3 cells; experiment: Overall PDE activity in inhibitor-treated βTC3 cells; type: cell-based; details: Mus musculus
Source text: An estimate for the ability of the inhibitors to permeate and inhibit PDEs within cells was provided by measurements of overall PDE activity in inhibitor-treated cells. These measurements provide an underestimate of the in vivo effects of the inhibitors due to inhibitor dilution, degradation, and release of inhibitor bound to PDEs, that occur during extraction, and are more pronounced in particulate fractions.

PDE1C of βTC3 cells = PDE1C of βTC3 cells (Mus musculus, UniProt Q64338); experiment: cAMP PDE activity of mono-Q FPLC peak I (PDE1C) of βTC3 cells; type: biochemical; details: for pIC50: 1 μM cAMP substrate, average ± standard deviation, read-out: IC50 values Peak I PDE1
Experimental: as §1, §2

involved PDE families = details: cited from earlier work
PDE3 = details: Beavo 1988; read-out: IC50 for inhibition of PDE3; cited from earlier work
Peak III PDE4 = experiment: cAMP PDE activity of mono-Q FPLC peak III of βTC3 cells; type: biochemical, Mus musculus; details: 2.5 μM rolipram, substrate cAMP 1 μM
Experimental: as §1, §2

PDE1C = details: unlike PDE1A and 1B; cited from earlier work
[3] = test system: glucose induced insulin secretion; details: Parker et al. 1995; cited from earlier work

Chain of PDE1C of βTC3 cells (Q64338 151-528 limits assumed): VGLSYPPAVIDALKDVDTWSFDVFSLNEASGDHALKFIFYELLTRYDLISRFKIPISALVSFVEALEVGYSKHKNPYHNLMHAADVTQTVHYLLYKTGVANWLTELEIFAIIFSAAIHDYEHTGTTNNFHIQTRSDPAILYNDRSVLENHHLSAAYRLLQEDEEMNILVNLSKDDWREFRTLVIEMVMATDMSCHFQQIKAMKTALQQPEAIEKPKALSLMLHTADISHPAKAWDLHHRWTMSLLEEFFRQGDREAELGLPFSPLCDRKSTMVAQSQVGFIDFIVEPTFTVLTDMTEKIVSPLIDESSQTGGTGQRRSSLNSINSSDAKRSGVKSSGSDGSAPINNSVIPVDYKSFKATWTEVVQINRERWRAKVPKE

pIC50 (PDE1C of βTC3 cells): < 4.00
SMILES: COc1ccc(C2CNC(=O)C2)cc1OC1CCCC1 (stereo not shown) [Rolipram, 4-[3-(cyclopentyloxy)-4-methoxyphenyl]-2-pyrrolidinone]
Insulin secretion, % of the insulin content of the cells (βTC3 cells; over 10^4 fold increase in concentrations, up to 15 μM): 7.9-10.7%
Inhibition by Rolipram, peak III (Peak III PDE4): 97%
Inhibition by Rolipram, peak III (Peak III PDE4; listed as rolipram): abolished
inhibition at 15 µM ([2]; inhibitor applied to cells at 15 μM, read-out: Inhibition of soluble cAMP PDE activities in inhibitor-treated cells): 37%

pIC50 (PDE1C of βTC3 cells): < 4.00
SMILES: CCOC(=O)C1=C[C@]2(CC)CCCN3CCc4c(n1c1ccccc41)[C@@H]32 [Vinpocetine, eburnamenine-14-carboxylic acid ethyl ester]
Sensitivity of PDE1C to inhibitor (in words) (PDE1C): resistant
Stimulation of glucose induced insulin secretion (in words) [3]: ineffective simulator of glucose induced insulin secretion

pIC50 (PDE1C of βTC3 cells): 5.35
SMILES: CCCOc1ccccc1-c1nc2nn[nH]c2c(=O)[nH]1 [Zaprinast, zaprinast]
Sensitivity of PDE1C to inhibitor (in words) (PDE1C): sensitive
Effect on glucose induced insulin secretion (in words) (βTC3 cells): enhanced glucose induced secretion; also recorded: partial stimulatory effects
Insulin secretion, % of the cellular insulin content (βTC3 cells; inhibitor 0.5 mM): 6.2%

Continued, compound first:

SMILES: COCc1nc2c([nH]1)c(=O)n(C)c(=O)n2CC(C)C [8 MM-IBMX, 8-methoxymethyl-1-methyl-3-(2-methylpropyl)xanthine]
Effect on glucose induced insulin secretion (in words) (βTC3 cells): strongly augmented insulin secretion; also recorded: dose dependent augmentation of insulin secretion
Effect on glucose induced insulin secretion (in words) (βTC3 cells; listed as 8-methoxymethyl-isobutylmethylxanthine): dose dependent augmentation of insulin secretion
Insulin secretion, % of the cellular insulin content (βTC3 cells; inhibitor 0.5 mM): 17.2%
Insulin secretion, % of the insulin content of the cells (βTC3 cells; inhibitor […]): 9.3%
Inhibition by 8 MM-IBMX, peak I ([1]; substrate cGMP 0.1 μM): 82%
Inhibition by 8 MM-IBMX, peak I ([1]; substrate cGMP 10 μM): 57%
inhibition at 500 µM ([2]; inhibitor applied to cells at 0.5 mM, read-out: Inhibition of soluble cGMP PDE activities in inhibitor-treated cells): 30%
pIC50 (PDE1C of βTC3 cells): 5.12
inhibition at 50 µM (PDE1C of βTC3 cells; 50 μM 8 MM-IBMX, substrate cAMP 0.5 μM): 80%

SMILES: CC(C)Cn1c(=O)n(C)c(=O)c2[nH]cnc21 [IBMX, 1-methyl-3-isobutylxanthine]
IC50 values for the involved PDE families (involved PDE families): low μM range
Insulin secretion, % of the cellular insulin content (βTC3 cells; inhibitor 0.5 mM): 8% and 18%
Insulin secretion, % of the cellular insulin content (βTC3 cells; inhibitor 0.5 mM, listed as isobutylmethylxanthine): 15.2%

SMILES: Cc1[nH]c(=O)c(C#N)cc1-c1ccncc1 [Milrinone, 1,6-dihydro-2-methyl-6-oxo-(3,4′-bipyridine)-5-carbonitrile]
Effect on glucose induced insulin secretion (in words) (βTC3 cells): did not affect insulin secretion
pIC50 (PDE3): 6.52
pIC50 (PDE1C of βTC3 cells): < 4.00

SMILES: CCCCOc1cc(CC2CNC(=O)N2)ccc1OC (stereo not shown) [RO20-1724, 4-(3-butoxy-4-methoxybenzyl)-2-imidazolidinone]
Effect on glucose induced insulin secretion (in words) (βTC3 cells): limited effect; also recorded: did not
Insulin secretion, % of the cellular insulin content (βTC3 cells; inhibitor 0.2 mM): 9.6%

SMILES: COc1cc2c(cc1OC)-c1c/c(=N\c3c(C)cc(C)cc3C)n(C)c(=O)n1CC2 [trequinsin]
Effect on glucose induced insulin secretion (in words) (βTC3 cells): no effect; also recorded: did not
Insulin secretion, % of the cellular insulin content (βTC3 cells; inhibitor 30 nM): 7%
